Experimental data from patent US20090274773A1, “ANTIPROLIFERATIVE COMBINATION COMPRISING CYC-682 AND A CYTOTOXIC AGENT” (Cyclacel Limited, priority 2005, published 2009).
Like-named read-outs stand apart in the source and are kept apart here.

Legend:
Format in all cases: cell-based, human
[1] = tested on: MCF7; experiment: MTT growth inhibition assay, single agent; conditions: 24 hours exposure, read-out: Antiproliferative effects IC50s (MTT assay)
Procedure: (§1) All cell lines were obtained from the ATCC (Rockville, Md.). Cells were grown as monolayers in RPMI medium supplemented with 10% fetal calf serum (Invitrogen, Cergy-Pontoise, France), 2 mM glutamine, 100 units/ml penicillin and 100 μg/ml streptomycin. All cells were split twice a week using trypsin/EDTA (0.25% and 0.02%, respectively; Invitrogen, Cergy-Pontoise, France) and seeded at a concentration of 2.5×10^4 cells/ml. All cell lines were tested regularly for Mycoplasma contamination by PCR using a Stratagene kit (La Jolla, Calif.).
(§2) The MTT assay was carried out as described previously (Hansen M B, Nielsen S E, Berg K. Re-examination and further development of a precise and rapid dye method for measuring cell growth/cell kill. J Immunol Methods. 1989 May 12; 119(2):203-10). In brief, cells were seeded in 96-well tissue culture plates at a density of 2×10^3 cells/well. Cell viability was determined after a 120-hour incubation, by the calorimetric conversion of yellow, water-soluble tetrazolium MTT (3-[4,5-dimethylthiazol-2-yl]-2,5-diphenyltetrazolium bromide; Sigma, Saint-Quentin Fallavier, France), into purple, water-insoluble formazan. This reaction is catalyzed by mitochondrial dehydrogenases and is used to estimate the relative number of viable cells (Mosmann, T, Rapid calorimetric assay for cellular growth and survival: application to proliferation and cytotoxicity assays. J Immunol Methods. 1983 Dec. 16; 65 (1-2):55-63). Cells were incubated with 0.4 mg/ml MTT for 4 hours at 37° C. After incubation, the supernatant was discarded, the cell pellet was resuspended in 0.1 ml of DMSO and the absorbance was measured at 560 nm using a microplate reader (Dynatech, Michigan). Wells with untreated cells or with drug-containing medium without cells were used as positive and negative controls, respectively. Growth inhibition curves were plotted as a percentage of untreated control cells.
(§3) The cells were seeded at 2×10^3 cells/well in 96-well plates and treated 24 hours later with increasing concentrations of CYC682. After incubation times of 1 hour, 24 hours or 48 hours, the cells were washed and post-incubated in drug-free medium for 72 hours. Growth inhibition was then determined by the MTT assay.

[2] = tested on: OVCAR1; experiment: MTT growth inhibition assay, single agent; conditions: 24 hours exposure, read-out: Antiproliferative effects IC50s (MTT assay)
Procedure: as §1, §2, §3

[3] = tested on: HOP92; experiment: MTT growth inhibition assay, single agent; conditions: read-out: Antiproliferative effects IC50s (MTT assay)
Procedure: as §1, §2, §3

[4] = tested on: HT29; experiment: MTT growth inhibition assay, single agent; conditions: read-out: Antiproliferative effects IC50s (MTT assay)
Procedure: as §1, §2, §3

[5] = tested on: HOP62; experiment: MTT growth inhibition assay, single agent; conditions: read-out: Antiproliferative effects IC50s (MTT assay)
Procedure: as §1, §2, §3

[6] = tested on: HCT116; experiment: MTT growth inhibition assay, single agent; conditions: read-out: Antiproliferative effects IC50s (MTT assay)
Procedure: as §1, §2, §3

[7] = tested on: COLO205; experiment: MTT growth inhibition assay, single agent; conditions: read-out: Antiproliferative effects IC50s (MTT assay)
Procedure: as §1, §2, §3

[8] = tested on: MDA-MB-435; experiment: MTT growth inhibition assay, single agent; conditions: 24 hours exposure, read-out: Antiproliferative effects IC50s (MTT assay)
Procedure: as §1, §2, §3

[9] = tested on: HCC2998; experiment: MTT growth inhibition assay, single agent; conditions: read-out: Antiproliferative effects IC50s (MTT assay)
Procedure: as §1, §2, §3

[10] = tested on: IGROV1; experiment: MTT growth inhibition assay, single agent; conditions: read-out: Antiproliferative effects IC50s (MTT assay)
Procedure: as §1, §2, §3

[11] = tested on: NSCLC cell line H1299; experiment: CNDAC combinations (alamar blue, Calcusyn Combination Index)
Procedure: Experiments in the NSCLC cell lines H1299 or RERF-LC-MA were performed in 96-well plates, with cells seeded at a density of 3,000/well, in DMEM containing 10% (v/v) FCS. Stock solutions of all drugs were made up in dimethylsulfoxide (DMSO), with the exception of gemcitabine, which was dissolved in 0.9% (w/v) sterile saline solution.
For experimental assessment of potential synergistic interactions, the concomitant treatment regime involved simultaneous treatment of cells with CNDAC and the other agent under investigation for 72 h, alongside suitable controls of cells treated with the individual compounds alone for 72 hr. In the sequential treatment regimes, one drug was added to the cells 2 h after plating, and left for 24 h. Media was then aspirated, replaced with fresh media containing the second drug and incubated for 72 h. The two individual treatment controls for the sequential treatment regime involved substituting one of the drug treatments with drug-free media. […] Drug interactions were analysed using the Calcusyn software package (BioSoft, Cambridge, U.K.) described below.

[12] = Homo sapiens, HOP-92, 24 hours exposure
[13] = Homo sapiens, HT-29, 24 hours exposure
[14] = Homo sapiens, HOP-62, 24 hours exposure
[15] = Homo sapiens, HCT-116, 24 hours exposure
[16] = Homo sapiens, COLO 205, 24 hours exposure
[17] = Homo sapiens, HCC 2998, 24 hours exposure
[18] = Homo sapiens, IGROV-1, 24 hours exposure
[19] = named agent in combination with CNDAC, H1299, CNDAC 24 h then other agent 72 h
[20] = named agent in combination with CNDAC, H1299, named agent 24 h then CNDAC 72 h
[21] = named agent in combination with CNDAC, H1299, simultaneous treatment 72 h

Question: Which IC50 ([1]; Homo sapiens) does the source give for `O=c1[nH]cc(F)c(=O)[nH]1` [5-FU, 5-fluorouracil] here?
Answer: The IC50 was 10 ± 1 µM.

Question: And the IC50 ([2]; Homo sapiens)?
Answer: The IC50 was 24 ± 1 µM.

Question: And the IC50 [3, 12]?
Answer: The IC50 was 11 ± 1 µM.

Question: What about the IC50 [4, 13] of the same molecule?
Answer: Its IC50 is 24 ± 1 µM.

Question: What about the IC50 [5, 14] of the same molecule?
Answer: Its IC50 is 118 ± 32 µM.

Question: What about the IC50 [6, 15] of the same molecule?
Answer: The IC50 was 5.3 ± 1.3 µM.

Question: And the IC50 [7, 16]?
Answer: Its IC50 is 240 ± 20 µM.

Question: What about the IC50 ([8]; Homo sapiens) of the same molecule?
Answer: Its IC50 is 10 ± 2 µM.

Question: What about the IC50 [9, 17] of the same molecule?
Answer: Its IC50 is 10 ± 1 µM.

Question: What about the IC50 [10, 18] of the same molecule?
Answer: The IC50 was 29 ± 1 µM.

Question: `Nc1ccn([C@@H]2O[C@H](CO)[C@H](O)[C@@H]2O)c(=O)n1` [Ara-C, 4-amino-1-[(2R,3S,4R,5R)-3,4-dihydroxy-5-(hydroxymethyl)oxolan-2-yl]pyrimidin-2-one] was tested. Which IC50 ([1]; Homo sapiens) did it give?
Answer: Its IC50 is greater than 300 µM.

Question: What about the IC50 ([2]; Homo sapiens) of the same molecule?
Answer: Its IC50 is greater than 300 µM.

Question: And the IC50 [3, 12]?
Answer: Its IC50 is 1.3 ± 0.3 µM.

Question: What about the IC50 [4, 13] of the same molecule?
Answer: Its IC50 is 130 ± 40 µM.

Question: What about the IC50 [5, 14] of the same molecule?
Answer: The IC50 was 6.3 ± 2.8 µM.

Question: And the IC50 [6, 15]?
Answer: The IC50 was 1.2 ± 0.4 µM.

Question: What about the IC50 [7, 16] of the same molecule?
Answer: The IC50 was 28 ± 8 µM.

Question: What about the IC50 ([8]; Homo sapiens) of the same molecule?
Answer: Its IC50 is 38 ± 9 µM.

Question: And the IC50 [9, 17]?
Answer: Its IC50 is 3.7 ± 0.5 µM.

Question: And the IC50 [10, 18]?
Answer: Its IC50 is 89 ± 21 µM.

Question: Which results are given for `N.N.[Cl][Pt][Cl]` [Cisplatin, cis-diamminedichlorplatinum (II)]?
Answer: Interaction with CNDAC at ED50 (in words) ([11]; H1299, concomitant treatment): weak synergy; Interaction with CNDAC at ED50 (in words) ([11]; H1299, pre-treatment with named agent): synergy; Interaction with CNDAC (in words), summary of Table 3 ([11]; combination with CNDAC, regime not specified): synergistic drug interactions; Combination Index at ED75, CNDAC pretreatment [11, 19]: 1.5; Combination Index at ED90, CNDAC pretreatment [11, 19]: 13.68; Combination Index at ED50, CNDAC pretreatment ([11]; named agent in combination with CNDAC, H1299, CNDAC 24 h then other agent 72 h, C.I. <1 synergistic, 1 additive, >1 antagonistic): 1.16; Combination Index at ED50, Other (named agent) pretreatment [11, 20]: 0.65; Combination Index at ED75, Other (named agent) pretreatment [11, 20]: 0.93; Combination Index at ED90, Other (named agent) pretreatment [11, 20]: 1.96; Combination Index at ED50, Concomitant [11, 21]: 0.77; Combination Index at ED75, Concomitant [11, 21]: 1.65; Combination Index at ED90, Concomitant [11, 21]: 7.56; IC50 [1]: 32 ± 2 µM; IC50 [2]: 12.1 ± 3.93 µM; IC50 ([3]; 24 hours exposure): 4.4 ± 0.4 µM; IC50 ([4]; 24 hours exposure): 25 ± 3 µM; IC50 ([5]; 24 hours exposure): 9.3 ± 0.9 µM; IC50 ([6]; 24 hours exposure): 9.2 ± 0.9 µM; IC50 ([7]; 24 hours exposure): 9.5 ± 2.5 µM; IC50 [8]: 13 ± 2.6 µM; IC50 ([9]; 24 hours exposure): 25 ± 5 µM; IC50 ([10]; 24 hours exposure): 26 ± 6 µM
